The text below walks through data of article PMC5870190, “A three-in-one-bullet for oesophageal cancer: replication fork collapse, spindle attachment failure and enhanced radiosensitivity generated by a ruthenium(II) metallo-intercalator” (Chemical Science, 2017).

One assay has as its system FLO-1 cells. In words: Clonogenic survival assay with IR, FLO-1. In kind it is cell-based, human. The following applies: Ru1 2 μM or Cis 300 nM for 24 h before IR. How it is done:
(§1) Clonogenic survival assay. OE21, OE33 or FLO1 cells were treated with 2 µM Ru1 for 24 h before irradiation with 0-8 Gy using a 137Cs γ-irradiator (IBL637, CIS Bio Int.; dose rate = 0.809 Gy min−1). 1 h after irradiation, cells were detached using Trypsin and re-seeded in 6 well plates at a density of 300 – 20,000 cells/well in triplicate in an incrementally greater number of cells with increasing IR dose to ensure adequate colony formation. Cells were incubated for 7–14 days after re-seeding to allow colony formation before being fixed with 10% methanol, 10% acetic acid and stained with 0.4% methylene blue. OE33 cells required an additional formaldehyde fixation (4% in PBS, 5 mins) step before the addition of methylene blue solution or colony detachment occurred. Colonies containing 50 cells or greater were counted using a Gelcount instrument and accompanying software (Oxford Optronix). Plating efficiencies were determined for each treatment condition and normalised to an untreated control to provide the surviving fraction (S. F.). S.F. versus radiation dose curves were plotted in GraphPad Prism and fit using a second order polynomial function (R2 values > 0.99). Dose modifying factors (DMF) at a SF=0.1 were calculated using the equation: Dose modifying factor (DMF) = IR dose to give S.F. 0.1/IR dose plus compound to give S.F.0.1. […]

The test system of assay [1] is hSAEC1-KT normal human small airway epithelial cells. In words: MTT assay, hSAEC1-KT cells. In kind it is cell-based. How it is done:
(§2) MTT assay. OE21, FLO-1 or hSAEC1-KT cells were seeded in 96 well plates at 20,000 cells/well (for 24 h treatment) or 10,000 cells/well (for 72 h treatment) and allowed to adhere for 24 h before treatment. OE33 cells were seeded in 48 well plates at 40,000 cells/well (24 h treatment) or 20,000 cells/well (72 h treatment). Cancer cell lines were treated with chemicals dissolved in RPMI media for consistency. After incubation, 0.5 mg/ml MTT (thiazolyl blue tetrazolium bromide) dissolved in serum-free medium was added for 60 minutes and the formazan product eluted using acidified isopropanol.
(§3) The absorbance at 540 nm was quantified by plate reader (reference wavelength 650 nm). The metabolic activity of the cell population was determined as a percentage of a negative (solvent) control. […]
(§4) For the determination of mutation induction, from the untreated and each treated condition, 2x10^5 cells were plated in 10 x 100 mm dishes in selective media (regular media
In general terms: Formazan colour is commonly taken as a measure of viable cells.

Assay [2] relates to OE21 human oesophageal squamous cell carcinoma. The experiment in a line: MTT assay, OE21 cells. In kind it is cell-based. To be noted: for IC50: MTT. How it is done: as §2, §3, §4
Assay [3] has as its system OE21, OE33 or FLO-1 cells. The experiment in a line: Clonogenic survival assay with IR, three oesophageal cancer cell lines. It is filed as cell-based, human. The following applies: Ru1 2 μM or sub-cytotoxic cisplatin (500 nM OE21 and OE33, 300 nM FLO-1), 24 h before IR; range over three cell lines. How it is done:
as §1

The subject of assay [4] is OE33 human oesophageal adenocarcinoma. In words: MTT assay, OE33 cells. It is filed as cell-based. How it is done: as §2, §3, §4
The subject of assay [5] is FLO-1 human oesophageal adenocarcinoma. The experiment in a line: MTT assay, FLO-1 cells. It is filed as cell-based. How it is done:
as §2, §3, §4

Another assay concerns OE33 cells. The experiment in a line: Clonogenic survival assay with IR, OE33. It is filed as cell-based, human. The following applies: Ru1 2 μM or Cis 500 nM for 24 h before IR. How it is done: as §1
Assay [6] relates to OE21 cells. In words: Clonogenic survival assay with IR, OE21. In kind it is cell-based, human. To be noted: Ru1 2 μM or Cis 500 nM for 24 h before IR. How it is done:
as §1

Assay [7] concerns OE21 cells. The experiment in a line: DNA fibre assay (replication fork progression). It is filed as cell-based, human. How it is done:
DNA fibre assay. The DNA fibre assay was performed as described previously.5 Briefly, OE21 cells were labelled with 30 µM CldU for 30 mins and then 250 µM IdU for an additional 30 mins. Either Ru1 (21 µM) or dppz (7 µM) was added during the second (IdU) nucleotide step (30 mins). DNA replication was terminated using ice-cold PBS and cells lysed (200 mM Tris-HCl pH 7.4, 50 mM EDTA and 0.5% SDS). DNA fibres were spread onto glass slides, fixed with methanol:acetic acid (3:1) and denatured with 2.5 M HCl. After blocking with 2% BSA, fibres were stained with anti-rat and anti-mouse 5-bromo-2′- deoxyuridine (BrdU) that specifically recognise either CldU (Abcam, dilution 1:500) or IdU (BD Sciences, 1:100). Anti-rat Cy3 (Jackson Immuno Research, 1:300) and anti-mouse Alexa-488 (Molecular Probes, 1:300) were used as the respective secondary antibodies. CldU- and IdU-labelled tracts were visualised using a Leica DMRB microscope with a DFC360FX camera and tract length measured by ImageJ software. Statistical analysis was performed by GraphPad Prism software using an unpaired t-test.
Western blotting. Treated samples were washed with cold PBS and lysed in RIPA (radioimmunoprecipitation assay) buffer containing protease inhibitors (10 μg/mL leupeptin, 2 μg/mL pepstatin, 50 μg/mL antipain, 2 μg/mL aprotinin, 20 μg/mL chyprostatin, 2 μg/mL benzamidine, 1 mM phenylmethanesulfonyl fluoride) and phosphatase inhibitors (50 mM NaF, 1 mM […]
Bis-Tris gels and LDS-PAGE. Gels were transferred onto nitrocellulose membrane and probed with primary antibodies in 5% BSA (bovine serum albumin) solutions at the following dilutions: 1/1000 dilution for majority of Cell Signaling antibodies and γH2AX. 1/500 for anti-p-ATR and anti-cleaved caspase 3. 1/200 anti-Chk1. 1/5000-1/10,000 anti- α-tubulin or β-actin.
Reactions were visualised with a suitable secondary antibody conjugated with horseradish peroxidase (1/5000 dilution, Thermo). […]

In assay [8] the test system is OE21 cells. In words: Cell-cycle analysis by flow cytometry. It is filed as cell-based, human. To be noted: OE21, 7 μM, 24 h. How it is done: phototoxic contribution to bio-activity. Doxorubicin (Sigma) was prepared in doubly-distilled water (10 mg/mL, 17.4 mM).
[Ru(phen)2(dppz)]2+ (2 mM) was prepared in doubly-distilled water.
Sub-cellular fractionation. OE21 or OE33 cells were treated in 12 well plates, washed with cold PBS (2x2 mls) and nuclear and cytosol fractions obtained using the Nuclei EZ Lysis kit (Sigma). Briefly, cells were washed with acidified PBS (pH 2.5) to remove the membrane-bound fraction and 0.4 ml EZ lysis buffer was added. Cells were detached by scraping, collected into eppendorfs, vortexed briefly and left for 5 minutes on ice. Samples were centrifuged (500g, 5 mins) and the supernatant (cytosol fraction) aspirated. The pellet (nuclear fraction) was re-suspended in 200 µl RIPA buffer. […] Ruthenium content was determined by ICP-MS analysis as described in a recent […]
DNA fibre assay. […] CldU- and IdU-labelled tracts were visualised using a Leica DMRB microscope with a DFC360FX camera and tract length measured by ImageJ software. […]
Western blotting. […] Protein content was determined by BCA assay. […]
AnnexinV staining. […] This was incubated for 15 mins at room temperature, 400 µl binding buffer added and analysed by flow cytometry (FL1 and FL3 channels for FITC and PI respectively). […]
In general terms: Flow cytometry measures light scatter and fluorescence of single cells or particles in a stream.

Some results are limits rather than exact numbers.

Usually IC50 stands for the concentration at which inhibition is half-maximal. A higher IC50 goes with a need for much substance. Turning to `N.N.[Cl][Pt][Cl]` [Cisplatin, cisplatin], the S.F. in the assay with FLO-1 cells (FLO-1, IR 0 Gy) came to 0.929; in the assay on FLO-1 cells (FLO-1, IR 2 Gy), 0.340; with FLO-1 cells (FLO-1, IR 4 Gy), 0.080; with FLO-1 cells (FLO-1, IR 6 Gy), 0.007; in the assay on OE33 cells (OE33, IR 0 Gy), 0.993; with OE33 cells (OE33, IR 2 Gy) it was 0.280. Moreover, the S.F. with OE33 cells (OE33, IR 4 Gy) is 0.077; in the assay with OE33 cells (OE33, IR 6 Gy), 0.022; in the assay on OE33 cells (OE33, IR 8 Gy), 0.005; with OE21 cells [6] (OE21, IR 0 Gy), 1.000; in the assay with OE21 cells [6] (OE21, IR 2 Gy) it was 0.587; in the assay with OE21 cells [6] (OE21, IR 4 Gy), 0.320. Besides, the S.F. with OE21 cells [6] (OE21, IR 6 Gy) worked out at 0.159; in the assay with OE21 cells [6] (OE21, IR 8 Gy) it was 0.049. In addition, the IC50 in [1] (24 h constant exposure) was 21.5 ± 5 µM; in [1] (72 h constant exposure) it was 15.8 ± 2 µM; in assay [2] (OE21, 24 h constant exposure), 22.6 ± 3.6 µM; in assay [2] (OE21, 72 h constant exposure) it was 6.3 ± 0.6 µM; in assay [4] (OE33, 24 h constant exposure), 11 ± 1.4 µM; in [4] (OE33, 72 h constant exposure), 3.25 ± 1 µM. The IC50 in [5] (FLO1, 24 h constant exposure) came out at 26.5 ± 0.7 µM; in assay [5] (FLO1, 72 h constant exposure) it was 4.7 ± 0.7 µM. Besides, in [3], the “dose modification factor (DMF) at surviving fraction of 0.1” value is reported as 1.05–1.44.
In the case of `COc1cccc2c1C(=O)c1c(O)c3c(c(O)c1C2=O)C[C@@](O)(C(=O)CO)C[C@@H]3O[C@H]1C[C@H](N)[C@H](O)[C@H](C)O1` [DOX, doxorubicin], the “reduction in potency towards OE21 cells compared to OE33 or FLO-1 cells” value in assay [2] (72 h exposure) is “three-fold”. The IC50 in [2] (Homo sapiens, Table S2, OE21, 24 h constant incubation) turned out to be 4.2 ± 0.3 µM; in [2] (Homo sapiens, Table S2, OE21, 72 h constant incubation) it was 0.21 ± 0.07 µM; in [4] (Homo sapiens, Table S2, OE33, 24 h constant incubation), 8.1 ± 2.7 µM; in assay [4] (Homo sapiens, Table S2, OE33, 72 h constant incubation) it was 0.07 ± 0.03 µM; in assay [5] (Homo sapiens, FLO-1, Table S2, FLO1, 24 h constant incubation) it was 6.1 ± 1.9 µM; in assay [5] (Homo sapiens, FLO-1, Table S2, FLO1, 72 h constant incubation) it was 0.05 ± 0.02 µM.
As for `c1ccc2nc3c4cccnc4c4ncccc4c3nc2c1` [dppz, dipyridophenazine], the IC50 in assay [1] (Homo sapiens, Epithelial cell, 24 h constant exposure) is above 10 µM; in assay [1] (Homo sapiens, Epithelial cell, 72 h constant exposure), above 10 µM; in assay [2] (Homo sapiens, OE21, 24 h constant exposure), 6.5 ± 2.1 µM; in [2] (Homo sapiens, OE21, 72 h constant exposure) it was 3.3 ± 0.4 µM; in assay [4] (Homo sapiens, OE33, 24 h constant exposure), 6.6 ± 2 µM; in assay [4] (Homo sapiens, OE33, 72 h constant exposure), 5.7 ± 0.9 µM. The 50% inhibitory concentration (IC50) was found to be 7.5 ± 0.8 µM in assay [5] (Homo sapiens, FLO-1, FLO1, 24 h constant exposure) and 1.9 ± 1.1 µM in [5] (Homo sapiens, FLO-1, FLO1, 72 h constant exposure). For the same compound, in the assay on OE21 cells [7] (Ru1 21 μM or dppz 7 μM during second (IdU) pulse, 30 min), the “increase in completely stalled/terminated replication forks (CldU tract only) compared to mock-treated” value is listed as “three-fold”. The “greater levels of stalled forks than Ru1” value in the assay with OE21 cells [7] (dppz 7 μM vs Ru1 21 μM) was “two-fold”. Besides, in the assay on OE21 cells [8], the cell-cycle response entry is “cells accumulated in G1 or early S phase”.
